Results as given in patent US20020146679A1, “Method for creating endothelial cell dysfunction in cell culture” (priority 2001, published 2002).
“And” between values parts separate entries of the source, which are not always exact repeats. Equal entries are not always repeated. “Also recorded” adds a separate entry of the source.

Assays:
Format in all cases: cell-based, human
EA hy926 cells = experiment: Western blotting analysis of endothelial marker proteins
Method: The whole cell lysates were generated by suspending cell pellets with protein lysis buffer containing 10 mM Tris.CI (pH 7.6), 1 mM EDTA (pH 8.0), 100 mM NaCI, 1 μg/mL aprotinin, and 100 μg/mL phenylmethylsulfonyl fluoride. The lysates were sonicated for 15 seconds at output control level 4 with Sonifier 450 model manufactured by VWR Scientific products. Fifty microgram lysates protein for each sample was electrophoretically separated in 8% to 16% Tris-Glycine Gel and transferred to a nitrocellulose membrane. The proteins on the membrane were stained with PONCEAS solution to check if the proteins loading and transfer were even. The membranes were separately incubated with 5% dry milk Phosphate-buffered saline (PBS) at room temperature for 2 hours and followed by overnight incubation at 4° C. with fresh 5% dry milk PBS containing primary antibodies at 1:2000 dilution. The peroxidase conjugated secondary antibodies was diluted at 1:4000 dilution with 5% PBS buffer. The incubation with secondary antibody was carried out at room temperature for 1 hour. The membranes were then subject to staining with ECL solution and exposure to films.

[1] = test system: EA hy926 endothelial cells; experiment: Tube formation assay on MATRIGEL (in vitro angiogenesis)
Method: According to an aspect of the invention, EA hy926 (EA) cells are initially grown in standard endothelial cell culture medium consisting of MCDB 131 (Clonetics Corp.) supplemented with 10 fetal bovine serum (FBS) (Hyclone laboratories), 100 U/mL penicillin/streptomycin, 50 μg/mL gentamicin, and other endothelial growth supplements (EGM bullet kit, Clonetics Corp.). […] Cells were grown in these conditions for 6 to 7 days. EA cells are then dispersed by trypsinization, counted, suspended in EGM media containing […], and plated onto the surface of a MATRIGEL® basement membrane protein matrix (0.5 mL/well, dispensed into 24-well tissue culture plates according to the manufacturer's instructions) at a density of 5×10^5 cells per well (24 well plate). The cells were then placed in a CO2 incubator at 37° C. and observed over a 16- to 24-hour period for cell differentiation into tube-like structures resembling capillaries. […]
EBM medium and its supplement were purchased from Clonetics. […] EA cells were then dispersed by trypsinization, counted, suspended in EGM media containing 10% FBS, and plated onto the surface of a MATRIGEL® basement membrane matrix (0.5 mL/well, dispensed into 24-well tissue culture plates according to the manufacturer's instructions) at a density of 5×10^5 cells per well (24-well plate). […]

[2] = test system: EA.hyb926 Endothelial Cells; experiment: Gene expression by Affymetrix gene chip profiling
Method: Control cells were treated with vehicle for the same times and RNA isolated as above. Transcript integrity was monitored using denaturing agarose gel electrophoresis in 1X MOPS. Biotinylated target RNA was prepared from 15 μg of total RNA using the Affymetrix protocol. Briefly, double-stranded cDNA was prepared from the RNA template using a modified oligo-dT primer containing a 5′ T7 RNA polymerase promoter sequence and the Superscript Choice System for cDNA Synthesis (Life Technologies Inc., Gaithersburg, Md.). Following phenol-chloroform extraction and ethanol precipitation, one-half of the cDNA reaction (0.5-1.0 μg) was used as template in an in vitro transcription reaction containing T7 RNA polymerase, a mixture of unlabeled ATP, CTP, GTP, and UTP, and biotin-11-CTP and biotin-16-UTP (BioArray High Yield Kit, ENZO, Inc.). The resulting biotinylated-cRNA “target” was purified on an affinity resin (RNeasy, Qiagen) and quantified using the convention that 1 O.D. Two-hundred sixty corresponds to 40 μg/mL of RNA. Typical yields ranged from 50 to 100 μg with transcript sizes between […] as determined by gel electrophoresis. Fifteen micrograms of biotinylated cRNA was randomly fragmented to an average size of 50 nucleotides by incubating at 94° C. for 35 minutes in 40 mM TRIS-acetate, pH 8.1, 100 mM potassium acetate, and 30 mM magnesium acetate. The fragmented cRNA was hybridized in a solution containing 100 mM MES, 1 M [Na^+], 20 mM EDTA, 0.01% TWEEN 20, 50 pM of Control Oligonucleotide B2 (Affymetrix, Inc.), 0.1 mg/mL of sonicated herring sperm DNA, and 0.5 mg/mL BSA for 16 hours at 45° C. on a Human 6800 Affymetrix GeneChip. Each hybridization included a mixture of four bacterial biotinylated-RNA transcripts (BioB, BioC, BioD, and cre) spiked at 1.5, 5, 25, and 100 pM, respectively. The hybridization reactions were processed and scanned according to the standard Affymetrix protocols.
EA cells incubated with 10 ng/mL TNFα(with 5% FBS) for 6 hours (short-term) or 6 days (chronic exposure) were evaluated for identification of cytokine-responsive endothelial genes. […] In addition, ecNOS expression was reduced 4-fold from control, consistent with the western and northern blot data (FIGS. 6 and 7).

[3] = SNAP 200 μM co-incubated with TNFα for 6 days
[4] = 6-day (chronic) TNFα treatment, 5% FBS

Compound: CC(=O)NC(C(=O)O)C(C)(C)SN=O (racemic) [SNAP, S-Nitroso-N-acetyl-D, L-penicillamine, reference compound]
- PAI-1 protein expression (EA hy926 cells; [3]): reduces
- VCAM-1 protein expression (EA hy926 cells; [3]): reduces
- caveolin-1 protein expression (EA hy926 cells; [3]): reduces
- tube formation / protection from TNFα-induced dysfunction ([1]; SNAP 200 μM co-incubated with TNFα 10 ng/mL for 6 days prior to plating on MATRIGEL): protects cells from TNFα induced dysfunction

Compound: TNFα
- CD31 protein expression (EA hy926 cells; [4]): increased
- PAI-1 protein expression (EA hy926 cells; [4]): increased
- VCAM-1 protein expression (EA hy926 cells; [4]): increased
- caveolin-1 protein expression (EA hy926 cells; [4]): increased
- ecNOS protein expression (EA hy926 cells; [4]): markedly decreased
- ecNOS expression reduced from control ([2]; 6 day TNFα treatment, 10 ng/mL with 5% FBS): 4 fold
- Short- (6 hr Tx) Fold Increase: MCP-1 ([2]; TNFα 6 hr, accession HG4069): 4.5 Fold
- Short- (6 hr Tx) Fold Increase: Type IV collagenase ([2]; TNFα 6 hr, accession J05070): 4.7 Fold
- Short- (6 hr Tx) Fold Increase: GM-CSF ([2]; TNFα 6 hr, accession M13207): 23.0 Fold
- Short- (6 hr Tx) Fold Increase: Vitronectin ([2]; TNFα 6 hr, accession M14648): 4.3 Fold
- Short- (6 hr Tx) Fold Increase: RANTES ([2]; TNFα 6 hr, accession M21121): 39.5 Fold
- Short- (6 hr Tx) Fold Increase: Interleukin-8 ([2]; TNFα 6 hr, accession M28130): 4.6 Fold
- Short- (6 hr Tx) Fold Increase: TNF-Inducible, CD44 adhesion receptor ([2]; TNFα 6 hr, accession M31165): 2.7 Fold
- Short- (6 hr Tx) Fold Increase: NFkB1 (p105) ([2]; TNFα 6 hr, accession M58603): 4.4 Fold
- Short- (6 hr Tx) Fold Increase: A20: TNFα-inducible transcription factor ([2]; TNFα 6 hr, accession M59465): 6.5 Fold
- Short- (6 hr Tx) Fold Increase: VCAM-1 ([2]; TNFα 6 hr, accession M60335): 32 Fold and 32.3 Fold
- Short- (6 hr Tx) Fold Increase: ecNOS (NOS 3) ([2]; TNFα 6 hr, accession M93718, nc = no change from vehicle treated): did not affect
- Short- (6 hr Tx) Fold Increase: HIF-1 α ([2]; TNFα 6 hr, accession U22431): 4.6 Fold
- Short- (6 hr Tx) Fold Increase: VEGF C ([2]; TNFα 6 hr, accession U43142): 7.8 Fold
- Short- (6 hr Tx) Fold Increase: Hiapl ([2]; TNFα 6 hr, accession U45878): 17.7 Fold
- Short- (6 hr Tx) Fold Increase: Prointerleukin-1β ([2]; TNFα 6 hr, accession X04500): 42.2 Fold
- Short- (6 hr Tx) Fold Increase: Manganese superoxide dismutase ([2]; TNFα 6 hr, accession X07834): 13.1 Fold
- Short- (6 hr Tx) Fold Increase: Macrophage inflammatory protein2-β ([2]; TNFα 6 hr, accession X53800): 11.2 Fold
- Short- (6 hr Tx) Fold Increase: Integrin, αV subunit (vitronectin receptor) ([2]; TNFα 6 hr, accession X68742): 4.3 Fold
- Short- (6 hr Tx) Fold Increase: MT-MMP ([2]; TNFα 6 hr, accession X83535): 4.3 Fold
- Chronic- (6 day Tx) Fold Increase: MCP-1 ([2]; TNFα 6 day, accession HG4069): 8.7 Fold
- Chronic- (6 day Tx) Fold Increase: Type IV collagenase ([2]; TNFα 6 day, accession J05070): 27.2 Fold
- Chronic- (6 day Tx) Fold Increase: Von Willebrand factor ([2]; TNFα 6 day, accession M10321): −8.3 Fold
- Chronic- (6 day Tx) Fold Increase: GM-CSF ([2]; TNFα 6 day, accession M13207): 37.1 Fold
- Chronic- (6 day Tx) Fold Increase: Vitronectin ([2]; TNFα 6 day, accession M14648): 6.8 Fold
- Chronic- (6 day Tx) Fold Increase: RANTES ([2]; TNFα 6 day, accession M21121): 62.8 Fold
- Chronic- (6 day Tx) Fold Increase: Interleukin-8 ([2]; TNFα 6 day, accession M28130): 32.6 Fold
- Chronic- (6 day Tx) Fold Increase: TNF-Inducible, CD44 adhesion receptor ([2]; TNFα 6 day, accession M31165): 37.1 Fold
- Chronic- (6 day Tx) Fold Increase: NFkB1 (p105) ([2]; TNFα 6 day, accession M58603): 2.9 Fold
- Chronic- (6 day Tx) Fold Increase: A20: TNFα-inducible transcription factor ([2]; TNFα 6 day, accession M59465): 6.6 Fold
- Chronic- (6 day Tx) Fold Increase: ecNOS (NOS 3) ([2]; TNFα 6 day, accession M93718): −3.9 Fold
- Chronic- (6 day Tx) Fold Increase: TRAIL ([2]; TNFα 6 day, accession U37518): 4.8 Fold
- Chronic- (6 day Tx) Fold Increase: VEGF C ([2]; TNFα 6 day, accession U43142): 27.1 Fold
- Chronic- (6 day Tx) Fold Increase: Hiapl ([2]; TNFα 6 day, accession U45878): 6.9 Fold
- Chronic- (6 day Tx) Fold Increase: Prointerleukin-1β ([2]; TNFα 6 day, accession X04500): 213.1 Fold
- Chronic- (6 day Tx) Fold Increase: Manganese superoxide dismutase ([2]; TNFα 6 day, accession X07834): 63.4 Fold
- Chronic- (6 day Tx) Fold Increase: Macrophage inflammatory protein2-β ([2]; TNFα 6 day, accession X53800): 40.6 Fold
- Chronic- (6 day Tx) Fold Increase: Integrin, αV subunit (vitronectin receptor) ([2]; TNFα 6 day, accession X68742): 6.8 Fold
- Chronic- (6 day Tx) Fold Increase: MCP-3 ([2]; TNFα 6 day, accession X72308): 19.9 Fold
- Chronic- (6 day Tx) Fold Increase: CD95 (Fas) ([2]; TNFα 6 day, accession X83492): 4.3 Fold
- Chronic- (6 day Tx) Fold Increase: MT-MMP ([2]; TNFα 6 day, accession X83535): 26.1 Fold
- Chronic- (6 day Tx) Fold Increase: MCP-2 ([2]; TNFα 6 day, accession X99886): 131.7 Fold
- increased expression of protective genes (superoxide dismutase, A-20, hiap-1, TRAIL, CD95) ([2]; TNFα exposure to EA cells): 4.3-17.7 fold
- increases in expression of proinflammatory (proatherogenic) genes ([2]; chronic TNFα exposure (6 days)): 6.8-75.8 fold
- serum-stimulated tube formation ([1]; TNFα exposure greater than 3 days (up to 6 days) in 5% FBS, then plated on matrigel): cells no longer form tubes; also recorded: fail to form tubes
